What was measured:
Kuramochi cells = assay: IncuCyte cell proliferation assay; type: cell-based; settings: Kuramochi cells labeled with mApple-H2B, cell count 0 to 72 hours, 20 μM top concentration; read-out: IncuCyte Kuramochi RB-WT: IC50
Description: IncuCyte® assay was used to measure the effect of disclosed compounds on cell proliferation. Fluorescent microscopy images of cells were taken immediately after compound treatment and 72 hours later. Image analysis software was used to obtain cell counts as a function of compound concentration. Kuramochi cells labeled with mApple-H2B were seeded on 384-well assay-ready plates. Plates were placed in an IncuCyte® (Sartorius) and scanned at 0 and 72 hours. IncuCyte® software was used to count the number of fluorescent nuclei in each well. The fold change in cell count from 0 to 72 hours in wells treated with increasing compounds concentrations (10 pts, 1/2 log dilution, 20 μM top concentration) was normalized to DMSO control wells. The normalized cell counts were fit with dose response curves and a […] was calculated.

CDK2/Cyclin E1 = CDK2/Cyclin E1 (Homo sapiens, UniProt P24941); assay: ADP-Glo Luminescent Kinase Assay (CDK2/E1-37C); type: biochemical; settings: 0.18 nM CDK2/Cyclin E1, 100 μM ATP, 1.5 μM Histone H1, 37° C., 60 min pre-incubation; read-out: ADPGLO (CDK2/E1-37C): IC50
Description: Inhibition of CDK2/Cyclin E1 activity by the presence of small molecules was evaluated using ADP-Glo Luminescent Kinase Assay (Promega). Activated CDK2/Cyclin E1 was incubated with its substrate Histone H1 (SignalChem H10-54N) in the kinase reaction buffer (100 μM ATP, 50 mM HEPES pH 7.5, 10 mM MgCl2, 1 mM EDTA, 2 mM DTT, 0.01% Brij35, 0.5 mg/mL BSA). Luminescence was recorded with an Envision plate reader (PerkinElmer).
Dose titrations of inhibitors in 100% DMSO were combined with 0.36 nM CDK2/Cyclin E1 in reaction buffer. The mixtures were incubated for 60 minutes at 37° C. before the addition of ATP and Histone H1 substrate to initiate the kinase reaction. The final conditions were 0.18 nM CDK2/Cyclin E1, 100 μM ATP, and 1.5 μM Histone H1. The reactions were incubated at 37° C. for 90 minutes before being stopped with the addition of ADP-Glo reagent. This mixture was incubated at room temperature for 60 minutes before Kinase Detection Solution is added to generate luminescence. The stopped reactions were analyzed on an Envision plate reader. The conversion ratios were normalized to yield % activity, plotted against compound concentration, and fit to a four-parameter equation to determine the IC50 for each compound.

| SMILES | IC50 (CDK2/Cyclin E1) [µM] | IC50 (Kuramochi cells) [µM] |
| --- | --- | --- |
| CC1(C)C[C@@H]1C(=O)N1CC2(CN(C(=O)c3cncs3)C[C@H]2C(=O)N2CCN(CC3CCCCC3)C(CC(=O)NS(C)(=O)=O)C2)C1 (single isomer, unassigned) [Example I-95] | > 10 | > 20 |
| C[C@@H](OCC12CCC(CC1)OC2)[C@H](NC(=O)[C@H]1CN(C(=O)c2cnc(O)cn2)CC12CN(C(=O)C1(C(F)(F)F)CC1)C2)C(=O)N1CCC(c2ccc(C(=O)O)c(C(F)(F)F)c2)CC1 (single isomer, unassigned) [I-89 2nd, 4-(1-(O-((2-oxabicyclo[2.2.2]octan-4-yl)methyl)-N-(6-(5-hydroxypyrazine-2-carbonyl)-2-(1-(trifluoromethyl)cyclopropane-1-carbonyl)-2,6-diazaspiro[3.4]octane-8-carbonyl)-L-threonyl)piperidin-4-yl)-2-(trifluoromethyl)benzoic acid] | 0.5 to 5 | > 20 |
| C[C@@H](OCC12CCC(CC1)OC2)[C@H](NC(=O)[C@@H]1CN(C(=O)c2cnn(Cc3ccccc3C(=O)O)c2)CC12CN(C(=O)C1(C(F)(F)F)CC1)C2)C(=O)NCCC1CCNCC1 (stereo in doubt) [Example I-102] | 0.5 to 5 | > 20 |
| C[C@@H](OCC1CCOCC1)[C@H](NC(=O)C1CN(C(=O)c2cnn(Cc3ccc(C(F)(F)F)cc3)c2)CC12CN(C(=O)C1(C(F)(F)F)CC1)C2)C(=O)N1CCC(c2ccc(C(=O)O)cc2)CC1 (stereo in doubt) [I-64 2nd, 4-(1-(O-((tetrahydro-2H-pyran-4-yl)methyl)-N—((S)-6-(1-(4-(trifluoromethyl)benzyl)-1H-pyrazole-4-carbonyl)-2-(1-(trifluoromethyl)cyclopropane-1-carbonyl)-2,6-diazaspiro[3.4]octane-8-carbonyl)-L-threonyl)piperidin-4-yl)benzoic acid] | > 10 | > 20 |
| C[C@@H](OCC12CCC(CC1)OC2)[C@H](NC(=O)[C@@H]1CN(C(=O)c2cnc(O)cn2)CC12CN(C(=O)C1(C(F)(F)F)CC1)C2)C(=O)N1CCC(c2ccc(C(F)(F)F)cc2C(=O)O)CC1 [Example I-1, 2-(1-(O-((2-oxabicyclo[2.2.2]octan-4-yl)methyl)-N—((S)-6-(5-hydroxypyrazine-2-carbonyl)-2-(1-(trifluoromethyl)cyclopropane-1-carbonyl)-2,6-diazaspiro[3.4]octane-8-carbonyl)-L-threonyl)piperidin-4-yl)-5-(trifluoromethyl)benzoic acid] | < 0.5 | > 20 |
| CC1(C)C[C@@H]1C(=O)N1CC2(CN(C(=O)c3cncs3)C[C@H]2C(=O)N2CCN(CC3CCCCC3)C(CC(=O)O)C2)C1 (stereo partly drawn) [Example I-6, 2-(1-(cyclohexylmethyl)-4-((S)-2-((S)-2,2-dimethylcyclopropane-1-carbonyl)-6-(thiazole-5-carbonyl)-2,6-diazaspiro[3.4]octane-8-carbonyl)piperazin-2-yl)acetic acid] | > 10 | > 20 |
| C=CCOC(=O)N1CCC2(CC1)CCN(C(=O)[C@@H](NC(=O)[C@@H]1CN(C(=O)c3cnn(Cc4ccccc4C(=O)O)c3)CC13CN(C(=O)C1(C(F)(F)F)CC1)C3)[C@@H](C)OCC13CCC(CC1)OC3)CC2 [Example I-7, 2-((4-((S)-8-(((2S,3R)-3-((2-oxabicyclo[2.2.2]octan-4-yl)methoxy)-1-(9-((allyloxy)carbonyl)-3,9-diazaspiro[5.5]undecan-3-yl)-1-oxobutan-2-yl)carbamoyl)-2-(1-(trifluoromethyl)cyclopropane-1-carbonyl)-2,6-diazaspiro[3.4]octane-6-carbonyl)-1H-pyrazol-1-yl)methyl)benzoic acid] | < 0.5 | > 20 |
| C[C@@H](OCC12CCC(CC1)OC2)[C@H](NC(=O)[C@@H]1CN(C(=O)c2cnc(O)cn2)CC12CN(C(=O)[C@H]1CC1(C)C)C2)C(=O)N1CCC(c2ccc(C(F)(F)F)cc2C(=O)O)CC1 [Example I-10] | < 0.5 | > 20 |
| C[C@@H](OCC1(C(=O)O)CCCCC1)[C@H](NC(=O)[C@@H]1CN(C(=O)c2cnn(Cc3ccc(C(F)(F)F)cc3)c2)CC12CN(C(=O)C1(C(F)(F)F)CC1)C2)C(=O)N1CCC(c2nccs2)CC1 [Example I-76, 1-((((2R,3S)-4-oxo-4-(4-(thiazol-2-yl)piperidin-1-yl)-3-((S)-6-(1-(4-(trifluoromethyl)benzyl)-1H-pyrazole-4-carbonyl)-2-(1-(trifluoromethyl)cyclopropanecarbonyl)-2,6-diazaspiro[3.4]octane-8-carboxamido)butan-2-yl)oxy)methyl)cyclohexanecarboxylic acid] | 5 to 10 | – |
| C[C@H](OCC12CCC(CC1)OC2)[C@@H](NC(=O)[C@@H]1CN(C(=O)c2cnc(O)cn2)CC12CN(C(=O)C1(C(F)(F)F)CC1)C2)C(=O)N1CCC(c2ccc(C(F)(F)F)c(C(=O)O)c2)CC1 [Example I-82, 5-(1-(O-((2-oxabicyclo[2.2.2]octan-4-yl)methyl)-N—((S)-6-(5-hydroxypyrazine-2-carbonyl)-2-(1-(trifluoromethyl)cyclopropane-1-carbonyl)-2,6-diazaspiro[3.4]octane-8-carbonyl)-D-threonyl)piperidin-4-yl)-2-(trifluoromethyl)benzoic acid] | – | > 20 |
| C[C@@H](OCC12CCC(CC1)OC2)[C@@H](CN1CCC(C(=O)O)CC1)NC(=O)[C@@H]1CN(C(=O)c2cnn(Cc3ccc(C(F)(F)F)cc3)c2)CC12CN(C(=O)C1(C(F)(F)F)CC1)C2 [Example I-97, 1-((2R,3R)-3-((2-oxabicyclo[2.2.2]octan-4-yl)methoxy)-2-((S)-6-(1-(4-(trifluoromethyl)benzyl)-1H-pyrazole-4-carbonyl)-2-(1-(trifluoromethyl)cyclopropane-1-carbonyl)-2,6-diazaspiro[3.4]octane-8-carboxamido)butyl)piperidine-4-carboxylic acid] | > 10 | – |

Second part, led by results:

| IC50 (CDK2/Cyclin E1) [µM] | SMILES | IC50 (Kuramochi cells) [µM] |
| --- | --- | --- |
| < 0.5 | COC(=O)c1c(F)cc(C2CCN(C(=O)[C@@H](NC(=O)[C@@H]3CN(C(=O)c4cnn(Cc5ccc(C(F)(F)F)cc5)c4)CC34CN(C(=O)C3(C(F)(F)F)CC3)C4)[C@@H](C)OCC34CCC(CC3)OC4)CC2)cc1F (stereo in doubt) [Example I-2] | 0.5 to 5 |
| > 10 | COC(=O)C(C)(C)Oc1ccc(C2CCN(C(=O)[C@@H](NC(=O)[C@@H]3CN(C(=O)c4cnn(Cc5ccc(C(F)(F)F)cc5)c4)CC34CN(C(=O)C3(C(F)(F)F)CC3)C4)[C@@H](C)OCC34CCC(CC3)OC4)CC2)cc1C(F)(F)F (stereo in doubt) [Example I-5] | > 20 |
| < 0.5 | C[C@@H](OCC12CCC(CC1)OC2)[C@H](NC(=O)[C@@H]1CN(C(=O)c2cnn(Cc3ccc(C(F)(F)F)cc3)c2)CC12CN(C(=O)C1(C(F)(F)F)CC1)C2)C(=O)N1CCC(c2ccccc2C(=O)O)CC1 [Example I-3, 2-(1-(O-((2-oxabicyclo[2.2.2]octan-4-yl)methyl)-N—((S)-6-(1-(4-(trifluoromethyl)benzyl)-1H-pyrazole-4-carbonyl)-2-(1-(trifluoromethyl)cyclopropane-1-carbonyl)-2,6-diazaspiro[3.4]octane-8-carbonyl)-L-threonyl)piperidin-4-yl)benzoic acid] | 0.5 to 5 |
| < 0.5 | C[C@@H](OCC12CCC(CC1)OC2)[C@H](NC(=O)[C@@H]1CN(C(=O)c2cnn(Cc3ccc(C(F)(F)F)cc3)c2)CC12CN(C(=O)C1(C(F)(F)F)CC1)C2)C(=O)N1CCC(c2ccc(OC(C)(C)C(=O)O)c(C(F)(F)F)c2)CC1 [Example I-4] | > 20 |
| < 0.5 | COC(=O)c1ccccc1C1CCN(C(=O)[C@@H](NC(=O)[C@@H]2CN(C(=O)c3cnn(Cc4ccc(C(F)(F)F)cc4)c3)CC23CN(C(=O)C2(C(F)(F)F)CC2)C3)[C@@H](C)OCC23CCC(CC2)OC3)CC1 [Example I-11, methyl 2-(1-(O-((2-oxabicyclo[2.2.2]octan-4-yl)methyl)-N—((S)-6-(1-(4-(trifluoromethyl)benzyl)-1H-pyrazole-4-carbonyl)-2-(1-(trifluoromethyl)cyclopropane-1-carbonyl)-2,6-diazaspiro[3.4]octane-8-carbonyl)-L-threonyl)piperidin-4-yl)benzoate] | 0.5 to 5 |
| < 0.5 | C[C@@H](OCC12CCC(CC1)OC2)[C@H](NC(=O)[C@@H]1CN(C(=O)c2cnn(Cc3ccc(C(F)(F)F)cc3)c2)CC12CN(C(=O)C1(C(F)(F)F)CC1)C2)C(=O)N1CCC(c2ccc(C(=O)O)cc2)CC1 [Example I-12] | > 20 |
| < 0.5 | COC(=O)c1ccc(C2CCN(C(=O)[C@@H](NC(=O)[C@@H]3CN(C(=O)c4cnn(Cc5ccc(C(F)(F)F)cc5)c4)CC34CN(C(=O)C3(C(F)(F)F)CC3)C4)[C@@H](C)OCC34CCC(CC3)OC4)CC2)cc1 [Example I-13] | 0.5 to 5 |

Reference: patent publication US20260265262A1, “CDK2 INHIBITORS AND METHODS OF USING THE SAME” (Cedilla Therapeutics, Inc., priority 2022, published 2026)
